From the NIST ThermoML archive (doi:10.1016/j.tca.2015.05.023)
± gives the expanded uncertainty stated by the source.

What was measured:
[1] = Molar enthalpy of transition or fusion; details: Crystal; DSC
[2] = Crystal; DTA

Compound: O=[N+]([O-])[O-].[Na+] [sodium nitrate]
- Molar enthalpy of transition or fusion [1]: 3.84 ± 0.122 kcal/mol
- Triple point temperature [2]: 581.15 ± 1 K
